From PubChem BioAssay (NCI) come the findings set out here.

Holding throughout (test): growth of human tumour cells (NCI), 48 h
Experiment [1] has as its system EKVX NSCLC.
Experiment [2] relates to HT29 colon.
In experiment [3] the test system is SK-MEL-5 melanoma.
In experiment [4] the test system is ACHN renal.
The subject of experiment [5] is UO-31 renal.
In experiment [6] the test system is IGROV1 ovarian.
For experiment [7], the system named is MCF7 breast.
The test system of experiment [8] is SNB-19 CNS.
The test system of experiment [9] is NCI-H522 lung.
The subject of experiment [10] is TK-10 renal.

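1) Cells in 96-well plates. 2) Compound, 48 h, 5 concentrations. 3) Linear interpolation between surrounding doses. 4) Unreached endpoint = highest concentration. Abbreviation: GI50, concentration required for 50% inhibition of growth. TGI: concentration producing complete growth inhibition.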

Consider `C[C@@H]1CC[C@@]2(OC1)O[C@H]1C[C@H]3[C@@H]4CC=C5C[C@@H](O[C@@H]6O[C@H](CO)[C@@H](O[C@@H]7O[C@@H](CO)[C@H](O)[C@H]7O)[C@H](O)[C@H]6O[C@@H]6O[C@@H](C)[C@H](O)[C@@H](O)[C@H]6O)CC[C@]5(C)[C@H]4CC[C@]3(C)[C@H]1[C@@H]2C`, for which the GI50 in experiment [1] was 1.62 µM; in [2], 1.06 µM; in [3], 1.6 µM; in experiment [5], 1.28 µM; in [6] it was 1.16 µM; in experiment [7], 1.8 µM. In addition, the GI50 is 1.21 µM in [8] and 1.67 µM in experiment [9]. The TGI in experiment [1] was 3.04 µM; in experiment [2] it was 2.46 µM; in [3] it was 2.95 µM; in experiment [4], 2.12 µM; in experiment [5], 2.55 µM; in experiment [6], 2.38 µM. Besides, the TGI is 3.3 µM in experiment [7], 2.45 µM in experiment [8], 3.23 µM in experiment [9] and 2.19 µM in experiment [10].

For the molecule `CC(=O)OC1CCC2(C)C(=CC(C3C=C4CC(OC(C)=O)CCC4(C)C4=C3C3CC5OC6(CCC(C)CO6)C(C)C5C3(C)CC4)C3=C2CCC2(C)C3CC3OC4(CCC(C)CO4)C(C)C32)C1` (stereo not given), the TGI was determined as 37.1 µM in experiment [1]; 27.2 µM in [2]; 25.7 µM in experiment [3]; 29.2 µM in experiment [4]; 28.9 µM in experiment [5]; 23.6 µM in [6]. The TGI worked out at 21.9 µM in experiment [7], 30.4 µM in [8], 19.4 µM in experiment [9] and 27.6 µM in experiment [10].

As for `O=c1[nH]c(-c2ccc(C(F)(F)F)cc2)nc2c1CSCC2`, the GI50 in experiment [1] was > 42.1 µM; in [2], > 76.8 µM; in experiment [3], 88.9 µM; in experiment [4] it was 32.9 µM; in experiment [5], 5.43 µM; in experiment [6], 43.1 µM. In addition, the GI50 in experiment [7] was > 100 µM; in experiment [8], 47.3 µM; in experiment [9] it was > 100 µM; in experiment [10], 23.8 µM. Moreover, the TGI in [1] was > 100 µM; in [2], > 100 µM; in [3], > 100 µM; in [4], > 100 µM; in experiment [5], > 67.4 µM; in [6], > 100 µM. In addition, the TGI in [7] is > 100 µM; in experiment [8] it was > 100 µM; in [9], > 100 µM; in experiment [10], 66.8 µM.

As for `CCNCC(O)c1ccc(N)c([N+](=O)[O-])c1` (stereo not given), the TGI in [1], in experiment [2], in experiment [3], in [4], in experiment [5] and in experiment [6] was > 100 µM throughout. Also, the TGI in experiment [7], in experiment [8], in experiment [9] and in experiment [10] was > 100 µM each time.

`COc1ccc(NC(=O)c2cc(OC)c(OC)c(OC)c2)cc1O`: the GI50 in [1] was > 100 µM; in [2] it was 3.21 µM; in [3], 1.43 µM; in experiment [4], 13.6 µM; in [5], 18.1 µM; in experiment [6], 8.86 µM. Besides, the results for the GI50 in experiment [7], in experiment [8] and in experiment [10] were 2.58 µM, 4.73 µM and > 100 µM, respectively. The TGI in experiment [1] is > 100 µM; in experiment [2] it was 11.6 µM; in experiment [3] it was 48.6 µM; in experiment [4], > 100 µM; in experiment [5] it was > 100 µM; in experiment [6], > 100 µM. The TGI in experiment [7], in [8] and in experiment [10] was > 100 µM throughout.

As to `FC(F)(F)c1ccc(-c2cnc(Br)nc2NC2CCCCCC2)cc1`, the GI50 in [2] was 71.4 µM; in [3] it was 29.1 µM; in experiment [4] it was > 100 µM; in experiment [5], 33.9 µM; in [6], > 100 µM; in [7] it was 19.7 µM. Also, the GI50 in [8] was > 100 µM; in experiment [9] it was 28.3 µM; in [10], > 100 µM. Also, the TGI in [2], in experiment [3], in experiment [4], in experiment [5], in [6] and in experiment [7] was > 100 µM throughout. In addition, the TGI in experiment [8], in experiment [9] and in experiment [10] was > 100 µM in each case.

As to `O=Nc1c(O)ccc2ccccc12`, the GI50 in experiment [2] was 3.41 µM; in [3] it was 1.46 µM; in [4] it was 2.16 µM; in [5], 1.1 µM; in experiment [6], 2.15 µM; in experiment [7], 2.03 µM. In addition, the GI50 was 14.7 µM in [8] and 2.06 µM in [9]. The TGI was 10.7 µM in experiment [2]; 2.85 µM in [3]; 7.52 µM in [4]; 4.79 µM in [5]; 5.78 µM in experiment [6]; 4.71 µM in experiment [7]. In addition, the TGI amounted to 28.2 µM in [8] and 4.25 µM in [9].

In the case of `CC(=O)Oc1cccc2c1C(=O)c1c(OC(C)=O)cc(C)cc1C2=O`, the TGI in experiment [1], in [2], in experiment [3], in experiment [4], in [6] and in experiment [7] was > 100 µM throughout. The TGI in experiment [8], in experiment [9] and in [10] was > 100 µM each time.

Turning to `COc1ccc(/C=C2\N=C3SC=C(N)N3C2=O)cc1`, the GI50 is 1.21 µM in experiment [2]; 0.833 µM in [3]; 0.711 µM in experiment [4]; 0.266 µM in experiment [5]; 0.499 µM in experiment [6]; 0.459 µM in experiment [7]. Besides, the GI50 was 3.32 µM in experiment [8] and 0.314 µM in experiment [9]. Besides, the TGI in experiment [2] is 3.37 µM; in experiment [3], 2.64 µM; in [4], 2.43 µM; in [5] it was 1.61 µM; in experiment [6] it was 2.39 µM; in experiment [7] it was 6.29 µM. For the same molecule, the TGI is 17 µM in experiment [8] and 1.5 µM in experiment [9].

`COc1ccc2c(c1)OC13Oc4cc(OC)ccc4C=C1CCCC3=C2`: the GI50 was > 100 µM in [1]; > 100 µM in experiment [2]; 13.6 µM in experiment [3]; > 100 µM in [4]; > 100 µM in experiment [6]; 4.8 µM in experiment [7]. The GI50 in [8], in experiment [9] and in [10] was > 100 µM each time. Further, the TGI in experiment [1], in experiment [2], in experiment [3], in experiment [4], in experiment [6] and in experiment [7] was > 100 µM in each case. In addition, the TGI in experiment [8], in [9] and in [10] was > 100 µM in each case.

For the molecule `O=C1/C(=C/c2cccs2)CCC/C1=C\c1cccs1`, the GI50 in experiment [2] is > 100 µM; in experiment [3], > 100 µM; in experiment [4], 57 µM; in [5], > 42.7 µM; in [6] it was 30.3 µM; in experiment [7], 0.529 µM. The GI50 is > 54.1 µM in [8], 40.1 µM in experiment [9] and 25.9 µM in experiment [10]. Also, the TGI in experiment [2] is > 100 µM; in experiment [3] it was > 100 µM; in experiment [4], > 100 µM; in [5], > 85.7 µM; in [6] it was 98.5 µM; in [7] it was > 100 µM. Further, the TGI in [8] was > 100 µM; in [9] it was > 100 µM; in experiment [10], > 71.8 µM.

In the case of `CC(=O)N1CC(F)(F)c2c(Sc3ncc(N4CCC5(CC4)COC[C@H]5N)nc3N)cccc21`, the GI50 is 8.27 µM in [1]; 14.2 µM in experiment [2]; 16 µM in [3]; 9.03 µM in experiment [4]; 2.96 µM in experiment [5]; 2.47 µM in experiment [6]. Besides, the GI50 in experiment [7] was 15.8 µM; in [8], 14.4 µM; in experiment [10], 0.991 µM. In addition, the TGI was > 100 µM in experiment [1]; 52.9 µM in [2]; 30.1 µM in experiment [3]; 51.4 µM in experiment [4]; 25.8 µM in [5]; 86.9 µM in experiment [6]. Further, the TGI in [7] was 55.6 µM; in [8] it was > 100 µM; in [10] it was 35.8 µM.

Turning to `O=C(/C=C\c1ccnc2ccccc12)c1ccc([N+](=O)[O-])cc1`, the GI50 in [2] is 2.36 µM; in experiment [3], 3.63 µM; in [4], 14.6 µM; in [5], 4.99 µM; in experiment [6], 16 µM; in experiment [7], 1.64 µM. The GI50 in experiment [8] is 14.8 µM; in experiment [9], 15.2 µM; in experiment [10] it was 21.3 µM. The TGI in [2] is 5.37 µM; in experiment [3], 22.3 µM; in experiment [4], > 100 µM; in [5], > 50.7 µM; in [6] it was > 79.6 µM; in [7] it was 3.54 µM. In addition, the TGI in experiment [8] is > 68.3 µM; in experiment [9], > 100 µM; in experiment [10] it was > 100 µM.

On to `CCCC[C@@H](COC(=O)N(Cc1cccs1)Cc1cccs1)NC(=O)N[C@@H](CC(=O)OC)c1ccc2c(c1)OCO2`, for which the GI50 in experiment [1], in [2], in [3], in experiment [4], in experiment [6] and in experiment [7] was > 100 µM in each case. The GI50 in experiment [9] and in [10] was > 100 µM throughout. The TGI in [1], in experiment [2], in experiment [3], in experiment [4], in experiment [6] and in experiment [7] was > 100 µM in each case. Moreover, the TGI in experiment [9] and in experiment [10] was > 100 µM each time.

Take `C[Se]C(=O)CC1=C2C=C(F)C=CC2/C(=C\c2ccc(S(C)=O)cc2)C1C` (stereo not given): the GI50 in experiment [1] is < 0.0113 µM; in [2], < 0.0318 µM; in experiment [3], 0.111 µM; in experiment [4], 0.154 µM; in experiment [5] it was 0.036 µM; in [6], 0.0972 µM. The GI50 in experiment [7] was 0.152 µM; in experiment [8] it was 0.223 µM; in [9] it was 0.404 µM. In addition, the TGI in experiment [1] was 0.0967 µM; in experiment [2], > 100 µM; in experiment [3], 0.266 µM; in experiment [4], 3.07 µM; in experiment [5], 0.179 µM; in experiment [6], 3.17 µM. For the same molecule, the TGI in experiment [7] came to 10.4 µM; in [8], 0.767 µM; in experiment [9], 2.92 µM.

Take `O=C(/C=C/c1cccc(Cl)c1)c1ccc(Cl)cc1Cl`: the GI50 in experiment [1] was 12.8 µM; in experiment [3] it was 8.78 µM; in experiment [4], 15.3 µM; in experiment [5] it was 11.4 µM; in [6], 7.56 µM; in [7], 3.49 µM. Also, the GI50 in [8] is 7.42 µM; in [9] it was 1.85 µM; in [10], 8.8 µM. The TGI in [1] is 34.4 µM; in experiment [3], 17.5 µM; in experiment [4], 38.4 µM; in experiment [5], 25.8 µM; in experiment [6] it was > 50 µM; in experiment [7] it was > 50 µM. Also, the TGI worked out at 17.1 µM in experiment [8], 15.6 µM in experiment [9] and 18.8 µM in [10].

As for `C=C(C)[C@H]1CC/C(C)=C/CCC(C)C(=O)CC/C(CO)=C\[C@@H]1O` (stereo not given in full), the GI50 was 55.5 µM in experiment [1]; 40.7 µM in experiment [3]; > 100 µM in [4]; > 100 µM in experiment [5]; > 100 µM in experiment [6]; > 100 µM in experiment [7]. Further, the GI50 in experiment [9] is 86.3 µM; in experiment [10], 70.8 µM. The TGI in [1], in experiment [3], in [4], in experiment [5], in experiment [6] and in experiment [7] was > 100 µM throughout. In addition, the TGI in experiment [9] and in experiment [10] was > 100 µM each time.
